These results are taken from patent US20090221441A1, “THREE-DIMENSIONAL CELLULAR ARRAY CHIP AND PLATFORM FOR TOXICOLOGY ASSAYS” (Rensselaer Polytechnic Institute, priority 2005, published 2009).

Where two headings read alike, the source gives them in different places.

Data set [1] concerns MCF7 human breast cancer cells. Briefly: cells. The method, then: (§1) The cytotoxicity of drugs (or drug metabolites) was determined by staining the slide containing the cells with a Live/Dead test kit (Molecular Probes) that produces a green fluorescent response from living cells. At the end of the 3-day culture period post stamping, the three-dimensional cell chip (DataChip) was rinsed three times in PBS for 5 min each. One mL of a dye solution containing 0.5 μM calcein AM was applied to each three-dimensional cell chip using a glass slide with 1 mm thick perimeter gasket acting as a barrier to prevent loss of the dye solution.

Data set [2] deals with Hep3B human hepatoma cells. Briefly: cells. Particulars: read-out: Calculated IC50, Alginate DataChip (Hep3B). The method, then: as §1
(§2) Following incubation for 50 minutes at room temperature, excess dye in the collagen-gel drops was removed by incubating the slides in a petri dish containing 16 mL of PBS for 30 min on a gyratory shaker at 60 rpm. The three-dimensional cell chip was dried thoroughly with nitrogen. The three-dimensional cell chip was scanned with the GenePix® Professional 4200A scanner equipped with blue laser and standard blue filter to determine the green fluorescent intensity and was quantified from the scanning image using GenePix Pro 6.0 (Molecular Devices Co.).
(§3) Percent live cells=(FReaction/FMax)×100
(§4) where FReaction is the green fluorescence intensity of the reaction spot and FMax is the green fluorescence intensity of untreated fully viable cells.
(§5) The alginate-containing three-dimensional cell chip (DataChip) was prepared as follows. A poly-L-lysine (PLL)-barium mixture was prepared by mixing equal volume of sterile PLL (0.01 w/v % from Sigma) and barium chloride solution in distilled water (0.1 M from Sigma).
(§6) A suspension of cells in low-viscosity alginate (from Sigma) was prepared by mixing a Hep3B cell suspension in 5% FBS-supplemented DMEM with alginate solution in distilled water so that the final concentration of cells and alginate are 6×10^6 cells/mL and 1% (w/v), respectively.
(§7) Following spotting and drying of 10 nL PLL-barium mixture on the PS-MA-treated slide, 20-nL of the cell suspension (MCF7 or HepB3; cell density of 6×10^6 cells/mL or 120 cells per spot) in alginate was spotted atop each PLL-barium spot.

Data set [3] deals with MCF7 cells. The data set is described as follows: cells. Particulars: Homo sapiens, MCF7, read-out: Calculated IC50, Alginate DataChip (MCF7). The method, then:
as §1, §2, §3, §4, §5, §6, §7

Data set [4] is described as follows: Cytotoxicity of compounds and their P450-generated metabolites, Hep3B DataChip stamped with MetaChip. Particulars: human. The method, then: as §1, §2, §3, §4
(§8) For efficient stamping, MTMOS-coated glass slides were prepared to contain a sol-gel barrier on the periphery of the slides.
(§9) To this end […] of methyltrimethoxysilane (MTMOS) sol was prepared by mixing 2 mL of MTMOS with 1 mL of HCl (10 mM) and sonicated for 10 min. The sol was spotted on the periphery of the MTMOS-coated slide and then the slide was baked in an oven for 30 min at 120° C.
(§10) The MetaChip was stored at −80° C. for 1 day prior to use. Cytotoxicity studies were performed by spotting 20 nL of test compound in distilled water (0-2 mM) onto the MetaChip spots and partially dried.
(§11) This was followed by stamping of the three-dimensional cell chip (DataChip) containing either MCF7 or Hep3B cells onto the MetaChip.
(§12) To this end, a MetaChip consisting of 20×54 alginate spots was prepared; each spot containing a single human P450 isoform (CYP1A2, CYP2D6, or CYP3A4), a mixture of the three isoforms, or no P450 as a test compound only control. Addition of test compounds was carried out by overlay spotting of solutions of these compounds onto the MetaChip, which was then stamped on top of the DataChip.
(§13) Using three DataChips in combination with three MetaChips, IC50 values for 27 compounds and their P450-generated metabolites against human Hep3B cells were determined. […] The three P450 isoforms were used along with an equimolar mixture of the three isoforms and a test compound only control without P450. The test compounds were added to the MetaChip, which was then stamped onto the DataChip and incubated for 6 h. This was followed by removing the DataChip, rinsing with growth medium, incubating in media for 3 days, and then stained for cell viability.

Data set [5] deals with human Hep3B cells. The data set is described as follows: in vitro. The method, then: as §1, §2, §3, §4, §8, §9, §10, §11, §12, §13
The test system of data set [6] is MCF7 cells. The data set is described as follows: cells. The settings on record: Homo sapiens.
Data set [7] relates to MCF7 cells. The data set is described as follows: cells. The settings on record: Homo sapiens. This is another data set of the same source.
For data set [8], the system named is MCF7 cells. Particulars: read-out: IC50, 2D literature values; 2D cultures in 96-well plates, Refs 1-5; cited from earlier work.
Data set [9] is described as follows: P450 activity determination with blue fluorogenic substrates in 384-well plate. It counts as biochemical, human. The method, then:
To assess the intrinsic reactivity of P450s in alginate matrices, reactions were performed in wells of a 384-well plate. P450-containing alginate sol was prepared by dispensing 24 μL of P450 baculosomes (1 nmol P450/mL), 36 μL of distilled water, and 60 μL of alginate (2%) in distilled water. Five microliters of this solution were spotted onto 5 μL of the dried PLL-barium spot in a 384-well. Followed by storage of the P450-alginate gel drops at −80° C. for 1 day, 25 μL of blue fluorogenic substrates (BOMCC for CYP3A4 and EOMCC for CYP1A2 and CYP2D6) containing 250 μM NADP^+ and its regeneration system (8 mM glucose-6-phosphate and 1 U/mL glucose-6-phosphate dehydrogenase) in 50 mM potassium phosphate buffer (pH 8) were dispensed onto the thawed P450-alginate gel drop.
As a control, soluble P450 without alginate was also used. The blue fluorescent 7-hydroxycoumarin released by P450-catalyzed oxidation of BOMCC or EOMCC was monitored as a function of time using a BioAssay Reader HTS 7000 Plus (Perkin Elmer, Norwalk, Conn.) at an excitation wavelength of 430 nm and emission wavelength of 497 nm.

Setting [10] is: MCF7, read-out: Calculated IC50, Collagen DataChip (MCF7).
Setting [11] is: MCF7, read-out: IC50 evaluated on the DataChip.
[12] abbreviates: IC50, CYP1A2, Hep3B DataChip, MetaChip spots with CYP1A2.
The mark [13] stands for this setting: IC50, CYP2D6, Hep3B DataChip, MetaChip spots with CYP2D6.
Setting [14] is: IC50, CYP3A4, Hep3B DataChip, MetaChip spots with CYP3A4.
The mark [15] stands for this setting: IC50, Mixture, Hep3B DataChip, equimolar mixture of CYP1A2, CYP2D6, CYP3A4.
Where [16] appears, read: IC50, No P450, Hep3B DataChip, test compound only control without P450.
The mark [17] stands for this setting: MCF7, read-out: Calculated IC50, 2D 96-well plate.
The mark [18] stands for this setting: MCF7, read-out: IC50 from 2D control in the 96-well plate.
Where [19] appears, read: MCF7, read-out: Calculated IC50, 3D 96-well plate.
The mark [20] stands for this setting: MCF7, read-out: IC50 from 3D control.
The mark [21] stands for this setting: Soluble enzyme (control, in solution).

Take `O=c1[nH]cc(F)c(=O)[nH]1` [5-Fluorouracil, 5-fluorouracil]: the IC50 in data set [1] (setting [10]) was 82.4 ± 10.3 µM; in data set [1] (setting [11]), 51.5 ± 3.3 µM; in data set [2], 66.1 ± 8.8 µM; in [3] it was 84.6 ± 18.7 µM; in data set [6] (setting [17]), 68.9 ± 13.5 µM; in data set [6] (setting [18]) it was 41.7 ± 4.6 µM. The IC50 was 49 ± 3 µM in [7] (setting [19]), 34.7 ± 1.2 µM in data set [7] (setting [20]) and 4.1 to 30 µM in [8]. The IC50 at 6 h came out at 218 ± 44.3 µM in [4] (setting [12]); 132 ± 20.7 µM in data set [4] (setting [13]); 349 ± 72.3 µM in data set [4] (setting [14]); 436 ± 77 µM in [4] (setting [15]); 196 ± 27.2 µM in [4] (setting [16]). In addition, the “Activation or deactivation of the toxic response by CYP3A4” value in data set [5] is on record as “deactivated”.

`COc1cccc2c1C(=O)c1c(O)c3c(c(O)c1C2=O)C[C@@](O)(C(=O)CO)C[C@@H]3O[C@H]1C[C@H](N)[C@H](O)[C@H](C)O1` [Doxorubicin, doxorubicin]: the IC50 in data set [1] (setting [10]) is 0.43 ± 0.09 µM; in [1] (setting [11]), 0.869 ± 0.057 µM; in data set [2] it was 0.29 ± 0.09 µM; in data set [3], 0.19 ± 0.08 µM; in data set [6] (setting [17]), 0.06 ± 0.01 µM; in [6] (setting [18]), 0.0647 ± 0.0044 µM. Further, the IC50 in data set [7] (setting [19]) was 0.23 ± 0.02 µM; in data set [7] (setting [20]), 69.2 ± 3 µM; in [8], 0.01 to 55 µM. For the same molecule, the half-inhibitory concentration (IC50) at 6 h in data set [4] (setting [12]) was 1.01 ± 0.22 µM; in data set [4] (setting [13]), 4.94 ± 1.36 µM; in [4] (setting [14]), 19.3 ± 5.45 µM; in data set [4] (setting [15]), 9.71 ± 2.22 µM; in data set [4] (setting [16]) it was 0.69 ± 0.01 µM; in data set [4] (IC50 values, Hep3B DataChip) it was below 1 µM. Besides, the “Activation or deactivation of the toxic response by CYP2D6” value in data set [5] is recorded as “activated”.

For “CYP3A4: human P450 isoform (baculosomes), soluble or encapsulated in alginate; assayed with BOMCC”, the Michaelis-Menten constant (Km) in [9] (In Alginate) is 35.4 ± 8.98 µM; in [9] (setting [21]), 33.7 ± 2.94 µM. The kcat in data set [9] (In Alginate) was determined as 0.0775 ± 0.0145 s⁻¹; in data set [9] (setting [21]), 0.125 ± 0.008 s⁻¹.

B1: CYP2D6: human P450 isoform (baculosomes), soluble or encapsulated in alginate; assayed with EOMCC (protein, UniProt P10635 1-497, looked up)
Cytochrome P450 2D6: MGLEALVPLAVIVAIFLLLVDLMHRRQRWAARYPPGPLPLPGLGNLLHVDFQNTPYCFDQLRRRFGDVFSLQLAWTPVVVLNGLAAVREALVTHGEDTADRPPVPITQILGFGPRSQGVFLARYGPAWREQRRFSVSTLRNLGLGKKSLEQWVTEEAACLCAAFANHSGRPFRPNGLLDKAVSNVIASLTCGRRFEYDDPRFLRLLDLAQEGLKEESGFLREVLNAVPVLLHIPALAGKVLRFQKAFLTQLDELLTEHRMTWDPAQPPRDLTEAFLAEMEKAKGNPESSFNDENLRIVVADLFSAGMVTTSTTLAWGLLLMILHPDVQRRVQQEIDDVIGQVRRPEMGDQAHMPYTTAVIHEVQRFGDIVPLGVTHMTSRDIEVQGFRIPKGTTLITNLSSVLKDEAVWEKPFRFHPEHFLDAQGHFVKPEAFLPFSAGRRACLGEPLARMELFLFFTSLLQHFSFSVPTGQPRPSHHGVFAFLVSPSPYELCAVPR
As for B1, in data set [9] (In Alginate), the Michaelis-Menten constant (Km) was 6.37 ± 1.25 µM and the kcat worked out at 0.0012 ± 0.00017 s⁻¹. In data set [9] (setting [21]), the Km amounted to 12.5 ± 4.64 µM and the kcat was 0.002 ± 0.0005 s⁻¹.

B2: CYP1A2: human P450 isoform (baculosomes), soluble or encapsulated in alginate; assayed with EOMCC (protein, UniProt P05177 2-516, looked up)
Cytochrome P450 1A2: ALSQSVPFSATELLLASAIFCLVFWVLKGLRPRVPKGLKSPPEPWGWPLLGHVLTLGKNPHLALSRMSQRYGDVLQIRIGSTPVLVLSRLDTIRQALVRQGDDFKGRPDLYTSTLITDGQSLTFSTDSGPVWAARRRLAQNALNTFSIASDPASSSSCYLEEHVSKEAKALISRLQELMAGPGHFDPYNQVVVSVANVIGAMCFGQHFPESSDEMLSLVKNTHEFVETASSGNPLDFFPILRYLPNPALQRFKAFNQRFLWFLQKTVQEHYQDFDKNSVRDITGALFKHSKKGPRASGNLIPQEKIVNLVNDIFGAGFDTVTTAISWSLMYLVTKPEIQRKIQKELDTVIGRERRPRLSDRPQLPYLEAFILETFRHSSFLPFTIPHSTTRDTTLNGFYIPKKCCVFVNQWQVNHDPELWEDPSEFRPERFLTADGTAINKPLSEKMMLFGMGKRRCIGEVLAKWEIFLFLAILLQQLEFSVPPGVKVDLTPIYGLTMKHARCEHVQARLRFSIN
Regarding B2, the Km in data set [9] (In Alginate) came out at 3.61 ± 0.43 µM; in data set [9] (setting [21]) it was 5.78 ± 0.8 µM. Moreover, the kcat amounted to 0.0085 ± 0.00517 s⁻¹ in [9] (In Alginate) and 0.0225 ± 0.0013 s⁻¹ in data set [9] (setting [21]).
